This note sets out measurements from PMC12549899 (Nature Communications, 2025).

Structures are written as SMILES. “And” between values parts separate entries of the source, which are not always exact repeats. Equal entries are not always repeated. Where two headings read alike, the source gives them in different places.

The assay concerns the target T1, DrOTOP1 G130W/A388W (Danio rerio, UniProt Q7ZWK8, A388W/G130W).
T1 construct: A previously generated codon-optimized full-length DrOTOP1[8]; (UniProt: Q7ZWK8) construct; expressed in transfected cells; host or cells: HEK-293 (CRL-1573, ATCC)
T1 sequence (Q7ZWK8 1-586 G130W/A388W): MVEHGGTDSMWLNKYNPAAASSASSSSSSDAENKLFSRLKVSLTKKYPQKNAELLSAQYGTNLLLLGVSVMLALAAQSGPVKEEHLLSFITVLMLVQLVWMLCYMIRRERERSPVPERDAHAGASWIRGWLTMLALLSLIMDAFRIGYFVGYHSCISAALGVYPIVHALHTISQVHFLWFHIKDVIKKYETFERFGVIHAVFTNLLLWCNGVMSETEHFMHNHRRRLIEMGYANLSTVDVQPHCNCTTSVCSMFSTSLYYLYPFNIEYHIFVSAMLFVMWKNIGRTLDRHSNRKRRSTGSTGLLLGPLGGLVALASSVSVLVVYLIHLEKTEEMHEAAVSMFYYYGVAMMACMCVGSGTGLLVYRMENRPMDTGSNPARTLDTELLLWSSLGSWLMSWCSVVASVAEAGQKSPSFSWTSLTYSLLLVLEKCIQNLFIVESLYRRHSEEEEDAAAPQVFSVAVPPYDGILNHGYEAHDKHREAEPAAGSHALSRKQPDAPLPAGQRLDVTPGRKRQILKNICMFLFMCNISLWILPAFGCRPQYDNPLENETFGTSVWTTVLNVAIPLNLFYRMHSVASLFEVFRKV
Kind of assay: Whole-cell patch-clamp, inhibition of acid-evoked currents, DrOTOP1 G130W/A388W. The class given is cell-based, zebrafish (Danio rerio). The protocol: Given our limited success in identifying mutations of the central site that disrupt antagonism by C2.2, we tested whether mutations of the central site in a background of G130W (the most impactful outer site mutation) might unmask contributions of this site. Thus, we generated and tested double mutants of G130W with E384A, A274W, and A388W. […] We also measured the dose-dependence of inhibition by C2.2 for both G130W/A388W and G130W/E384A (Fig. 5I, J). […] G130W was tested in parallel to confirm that 100 and 300 μM C2.2 produced dose-dependent inhibition.
HEK-293 cells (CRL-1573, ATCC) were cultured in DMEM (Thermofisher 11995073) containing 10% fetal bovine serum (Life Technology 16000044) and Penicillin-Streptomycin (100 I.U./mL) and (100 µg/mL), respectively. Cells were transfected with WT DrOTOP1 or mutant DrOTOP1 channels in 35 mm petri dishes, with ~ 500 ng DNA and 2 μL TransIT-LT1 transfection reagent (Mirus Bio Corporation, Cat # MIR2300) following the manufacturer’s protocol. All constructs were subcloned into a pcDNA3.1 vector that adds an N-terminal fusion tag consisting of an octahistidine tag followed by eGFP, a Gly-Thr-Gly-Thr linker and a 3C protease cleavage site ([…]) followed by WT DrOTOP1, WT mOTOP1, WT hOTOP1, or mutated DrOTOP1. Point mutations were generated via In-Fusion Cloning (Takara) using single-stranded DNA primers generated through IDT and sequence confirmed by Sanger sequencing (GeneWiz).
Whole-cell patch-clamp recording was performed as previously described[6],[22],[25]. Recordings were made with an Axopatch 200B amplifier, digitized with a Digidata 1322a 16-bit data acquisition system, acquired with pClamp 8.2 and analyzed with Clampfit 10 (Molecular Devices). Recordings were sampled at 5 kHz and filtered at 1 kHz. Patch Pipettes with resistance of […] were fabricated from borosilicate glass, and only recordings with a giga-Ohm seal were used in analysis. Membrane potential was held at −80 mV for the duration of recordings. At the beginning of recordings and between, cells were washed with Tyrode’s solution (see below). Once a giga-Ohm seal was reached, cells were lifted and placed in front of microcapillary tubes controlled by a Fast-Step perfusion system (Warner Instruments) so that extracellular solutions could be rapidly exchanged during each experiment.
Standard Tyrode’s solution consisted of 145 mM NaCl, 5 mM KCl, MgCl2, 2 mM CaCl2, 20 mM D-Glucose, and 10 mM HEPES (for pH 7.4). All other extracellular patch-clamp solutions contained 160 mM NMDG-Cl, 2 mM CaCl2, and the following buffers: 10 mM HEPES (for pH 7.4), 10 mM MES (for pH 6.5-5.5), 10 mM CHES for pH 10, and 10 mM HomoPIPES for (pH 5.0). pH adjusted with HCl. When adding compounds to extracellular solutions, the concentration of DMSO in solution was never higher than 0.3%. The pipette contained intracellular solution made up of 120 mM Cs-aspartate, 15 mM CsCl, 2 mM Mg-ATP, 5 mM EGTA, 2.4 mM CaCl2 (100 nM free Ca^2+), and 10 mM HEPES with a pH of 7.3. All extracellular solution osmolarity was adjusted to 300 mOsm and intracellular osmolarity was adjusted to 290 mOsm.
All data are presented as mean ± SEM unless otherwise noted, and each data point represents an independent replicant. Inhibition of compounds was quantified as ((I2peak-I1)/(I2peak))*100, where I1 is the current immediately before wash-off and I2peak is the maximum recovered current (Supplementary Fig. 2). Hill coefficients were determined by the following equation: Y = Bmax*X^h/(Kd^h + X^h). Absolute IC50 was determined by the following equation: Fifty = (Top + Baseline)/2 Y = Bottom + (Top-Bottom)/(1 + ((Top-Bottom)/(Fifty-Bottom) − 1)*(AbsoluteIC50/X)^HillSlope). pH50 curves (Fig. 6G inset) were determined using the following equation: Y = Bottom + (Top-Bottom)/(1 + (EC/X)^HillSlope) where EC = EC50 control. Graphs with electrophysiological data were made in Graphpad Prism 10 (Graphpad Software Inc). […]

The mark [1] stands for this setting: 100 µM, DrOTOP1 G130W/A388W, single cells.

Consider `C=C(C)COc1ccccc1NC(=O)c1nc[nH]c1C` [C2.2], for which the Inhibition of currents is 1.543% (10 µM, DrOTOP1 G130W/A388W, single cells or mean, mean); 2.216% and 2.459% and 1.638% and 1.737% and 0.722% and 0.4878% (10 µM, DrOTOP1 G130W/A388W, single cells or mean, single cells). The HillSlope (DrOTOP1 G130W/A388W) is listed as 1.10 and the HillSlope (G130W/A388W, best-fit value) was determined as 1.1. Further, the “Reduction in sensitivity (IC50) compared with single mutant G130W” value (DrOTOP1 G130W/A388W) was 3 fold and ~ 3 fold. For the same molecule, the IC50 (DrOTOP1 G130W/A388W, pH 5.5, read-out: IC50) was 397 µM and the IC50 (G130W/A388W, best-fit value, Top = 100, Bottom = 0, read-out: AbsoluteIC50) was determined as 397 µM. Under “G130W/A388W, best-fit value”, this molecule showed a LogAbsoluteIC50 of 2.599.
Usually inhibition stands for the share of the control response that was lost under treatment. Lower therefore signals a response near the control. With `O=C(/C(=N\O)c1ccccc1)c1ccccc1` [C11, benzil monoxime], under setting [1], the Inhibition of currents is 63.5701% and 65.9051% and 61.9048% and 72.4545% and 68.6192%; at 100 µM the inhibition was 63.1%.
